Legend:
[1] = target: T1, rCGGBP1 (Homo sapiens, UniProt Q9UFW8); experiment: DBID dot blot of protein binding to immobilised genomic DNA, chemiluminescence densitometry; conditions: 100 μM compound, 45 min, 4 °C, RIPA buffer; sonicated HEK293T genomic DNA
T1 construct: gene CGGBP1; recombinant, C-terminal FLAG tag; about 20 kDa
T1 sequence (Q9UFW8 1-167): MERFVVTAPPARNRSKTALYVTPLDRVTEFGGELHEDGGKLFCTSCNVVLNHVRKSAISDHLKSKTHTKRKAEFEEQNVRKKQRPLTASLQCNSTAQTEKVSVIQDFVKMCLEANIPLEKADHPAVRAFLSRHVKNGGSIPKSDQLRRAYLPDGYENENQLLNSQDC

[2] = target: T1, rCGGBP1; experiment: in vitro Alu DNA immunoprecipitation with qPCR (anti-FLAG); type: binding; conditions: 100 μM compound, 45 min, room temperature, PBS; Alu DNA 1 μg, protein 0.5 μg
Protocol: in vitro Alu DNA immunoprecipitation with qPCR (anti-FLAG) on rCGGBP1 | Pre-incubation of rCGGBP1 with Givinostat reduces the amount of Alu DNA co-precipitating with FLAG-antibody by […]

% reduction of co-precipitated Alu DNA at 100 μM [2]	SMILES	DBID dot blot of protein binding to immobilised genomic DNA, chemiluminescence d [1]
–	CC(=O)Nc1ccc(NC(=S)NC(=O)c2ccc(C(C)(C)C)cc2)cc1 [Tenovin-1]	(ii) moderate inhibition (Sirtinol and Tenovin-I)
–	CC(NC(=O)c1ccccc1/N=C/c1c(O)ccc2ccccc12)c1ccccc1 (stereo not drawn) [Sirtinol]	(ii) moderate inhibition (Sirtinol and Tenovin-I)
70-80%	CCN(CC)Cc1ccc2cc(COC(=O)Nc3ccc(C(=O)NO)cc3)ccc2c1 [Givinostat]	–

— publication PMC7576722, “An immunochemistry-based screen for chemical inhibitors of DNA-protein interactions and its application to human CGGBP1” (BMC Cancer, 2020)
